How the values were obtained:
CYP2A6 = molecular target: T1, CYP2A6 (Homo sapiens, UniProt P11509); assay: Inhibitory activity of 20 uM SPP100 on 37 Pmoles of cDNA-derived CYP2A6 enzyme in microsome prepared from human lymphoblastoid cell line; assay type: ADME, microsomes; parameters: conc 20 uM, interact cpd conc 3 uM; conditions: probe coumarine
T1 sequence (P11509 whole entry): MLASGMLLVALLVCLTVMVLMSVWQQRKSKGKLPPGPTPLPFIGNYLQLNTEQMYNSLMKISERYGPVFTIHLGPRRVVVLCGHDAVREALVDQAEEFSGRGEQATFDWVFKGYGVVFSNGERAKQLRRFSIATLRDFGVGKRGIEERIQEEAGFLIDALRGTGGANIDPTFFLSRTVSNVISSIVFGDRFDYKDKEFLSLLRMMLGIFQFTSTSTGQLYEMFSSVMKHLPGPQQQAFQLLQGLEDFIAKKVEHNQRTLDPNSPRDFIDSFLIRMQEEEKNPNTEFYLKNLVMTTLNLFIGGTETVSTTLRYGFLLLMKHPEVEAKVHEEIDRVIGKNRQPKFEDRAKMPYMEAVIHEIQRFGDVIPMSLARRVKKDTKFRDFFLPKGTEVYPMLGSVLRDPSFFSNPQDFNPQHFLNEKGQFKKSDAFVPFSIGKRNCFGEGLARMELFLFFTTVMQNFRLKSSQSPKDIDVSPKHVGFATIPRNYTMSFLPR

[1] = % SPP100 recovered in hydrolysed following single intravenous administration of 10 mg.Kg-1 [14C] aliskiren hemifumarate in male rat; assay type: ADME, organism-based, HAN:WIST(SPF), Bile; conditions: in vivo
CYP2C9 = CYP2C9 (Homo sapiens, UniProt P11712); assay: Inhibition of CYP2C9 in human liver microsomes from 10 healthy donors at 200 uM aliskiren (SPP100); assay type: ADME, Microsome; parameters: conc 200 uM; conditions: probe S-warfarin (7-hydroxylation)
[2] = Apparent terminal half-life (0-168h) of total radioactivity following single intravenous administration of [14C] aliskiren hemifumarate at 1 mg.Kg-1 level in marmoset; assay type: ADME, organism-based, Callithrix jacchus, Plasma; conditions: in vivo
[3] = Excretion (24h) of radioactivity in faeces following intravenous administration of [14C] aliskiren hemifumarate at 10 mg.Kg-1 level in rat; assay type: ADME, organism-based, Lister-Hooded, Feces; conditions: in vivo
[4] = Excretion (168h) of radioactivity in urine following intravenous administration of [14C] aliskiren hemifumarate at 10 mg.Kg-1 level in rat; assay type: ADME, organism-based, Lister-Hooded; conditions: in vivo
[5] = Concentration of radioactivity in carcass following oral administration of [14C] aliskiren hemifumarate at 100 mg.Kg-1 level measured on day 7 in rat; assay type: ADME, organism-based, Lister-Hooded; conditions: in vivo
[6] = Cmax of [14C] aliskiren hemifumarate following single intravenous dose of [14C] aliskiren hemifumarate at 10 mg.Kg-1 level in mouse; assay type: ADME, organism-based, TgRasH2, Plasma; conditions: in vivo
[7] = Mean excretion of radioactivity (24-48h) in urine and faeces following single intravenous dose of 10 mg.Kg-1 [14C] aliskiren hemifumarate in mouse; assay type: ADME, organism-based, TgRasH2, Urine/Feces; conditions: in vivo
[8] = Excretion of radioactivity (0-72h) in urine following single oral dose of 500 mg.Kg-1 [14C] aliskiren hemifumarate in mouse; assay type: ADME, organism-based, TgRasH2; conditions: in vivo
[9] = Mean excretion of radioactivity (0-72h) in urine and faeces following single oral dose of 500 mg.Kg-1 [14C] aliskiren hemifumarate in mouse; assay type: ADME, organism-based, TgRasH2, Urine/Feces; conditions: in vivo
[10] = Total excretion (0-72h) of radioactivity in urine, faeces and cage wash following single intravenous dose of 10 mg.Kg-1 [14C] aliskiren hemifumarate in mouse; assay type: ADME, organism-based, TgRasH2, Urine/Feces; conditions: in vivo
[11] = Cmax (0-96h) of total radioactivity following oral administration of [14C] aliskiren hemifumarate at 100 mg.Kg-1 level in rat; assay type: ADME, organism-based, Albino HAN:WIST, Plasma; conditions: in vivo
[12] = % of radioactivity (24h) recovered in bile following single intravenous administration of 10 mg.Kg-1 [14C] aliskiren hemifumarate in male rat; assay type: ADME, organism-based, HAN:WIST(SPF); conditions: in vivo
[13] = % of radioactivity (48h) recovered in gastrointestinal tract of receiver rat following duodenal infusion of radioactivity through bile from donor rat treated with single intravenous administration of 10 mg.Kg-1 [14C] aliskiren hemifumarate; assay type: ADME, organism-based, HAN:WIST(SPF); conditions: in vivo
[14] = Mean excretion of radioactivity (0-24h) in urine and faeces following single intravenous dose of 10 mg.Kg-1 [14C] aliskiren hemifumarate in rat; assay type: ADME, organism-based, Albino HAN:WIST, Urine/Feces; conditions: in vivo
[15] = Excretion of radioactivity (24-48h) in urine following single intravenous dose of 10 mg.Kg-1 [14C] aliskiren hemifumarate in rat; assay type: ADME, organism-based, Albino HAN:WIST; conditions: in vivo
[16] = Excretion of radioactivity (72-96h) in faeces following single intravenous dose of 10 mg.Kg-1 [14C] aliskiren hemifumarate in rat; assay type: ADME, organism-based, Albino HAN:WIST, Feces; conditions: in vivo
[17] = Concentration of radioactivity in the colon wall following repeated oral administration of [14C] aliskiren hemifumarate at 100 mg.Kg-1 level studied at 24h after 3rd dose in rat; assay type: ADME, organism-based, Albino HAN:WIST; conditions: in vivo
[18] = Concentration of radioactivity in the liver following repeated oral administration of [14C] aliskiren hemifumarate at 100 mg.Kg-1 level studied at 24h after 7th dose in rat; assay type: ADME, organism-based, Albino HAN:WIST; conditions: in vivo
[19] = Concentration of radioactivity in the brown fat following repeated oral administration of [14C] aliskiren hemifumarate at 100 mg.Kg-1 level studied at 2h after 3rd dose in rat; assay type: ADME, organism-based, Albino HAN:WIST, Brown adipose tissue; conditions: in vivo
[20] = Cmax normalised (0-168h) of total radioactivity following single intravenous administration of [14C] aliskiren hemifumarate at 1 mg.Kg-1 level in marmoset; assay type: ADME, organism-based, Callithrix jacchus, Plasma; conditions: in vivo
[21] = Cmax of aliskiren hemifumarate following single dosing of SPP100B oral solution at 40 mg level studied on day 1 in men; assay type: ADME, organism-based; conditions: male, human, plasma
[22] = Tmax of aliskiren hemifumarate following single dosing of SPP100B oral solution at 160 mg level studied on day 1 in men; assay type: ADME, organism-based; conditions: male, human, plasma
[23] = Tmax of aliskiren hemifumarate following single dosing of SPP100B oral solution at 640 mg level studied on day 1 in men; assay type: ADME, organism-based; conditions: male, human, plasma
[24] = Effect of 2 week oral dosing of aliskiren hemifumarate at 50 mg.Kg-1 level on plasma magnesium level in male Callithrix jacchus; assay type: toxicity, organism-based; conditions: marmoset, 336 h
[25] = Effect of 2 week oral dosing of aliskiren hemifumarate at 100 mg.Kg-1 level on plasma alkaline phosphatase level in female Callithrix jacchus; assay type: toxicity, organism-based; conditions: marmoset, 336 h
[26] = Cmax of aliskiren hemifumarate following 2 week oral dosing of aliskiren hemifumarate at 50 mg.Kg-1 level studied on day 1 in female Callithrix jacchus; assay type: ADME, organism-based; conditions: marmoset, plasma
[27] = Bioavailability (0-96h) of unlabeled aliskiren hemifumarate following oral administration of aliskiren hemifumarate at 100 mg.Kg-1 level in rat; assay type: ADME, organism-based; conditions: Albino HAN:WIST, plasma
[28] = Tmax of aliskiren hemifumarate following 4 week oral dietary dosing of aliskiren hemifumarate at 1000 mg.Kg-1 level in female mouse; assay type: ADME, organism-based; conditions: CB6F1-TGrasH2, mouse, in vivo
[29] = Cmax/dose of aliskiren hemifumarate following 4 week oral dietary dosing of aliskiren hemifumarate at 2000 mg.Kg-1 level in female mouse; assay type: ADME, organism-based, CB6F1-TGrasH2; conditions: in vivo, 672 h
[30] = Tmax of aliskiren hemifumarate following 2 week oral dosing of aliskiren hemifumarate at 10 mg.Kg-1 level studied on day 1 in male Callithrix jacchus; assay type: ADME, organism-based; conditions: marmoset, plasma
[31] = AUC (0-24h)/dose of aliskiren hemifumarate following 4 week oral dietary dosing of aliskiren hemifumarate at 1000 mg.Kg-1 level in female mouse; assay type: ADME, organism-based, CB6F1-TGrasH2, Plasma; conditions: in vivo
[32] = Cmax normalised (0-168h) of unlabeled aliskiren hemifumarate following single oral administration of aliskiren hemifumarate at 3 mg.Kg-1 level in marmoset; assay type: ADME, organism-based, Callithrix jacchus, Plasma; conditions: in vivo

CYP2C9, sequence (P11712 whole entry): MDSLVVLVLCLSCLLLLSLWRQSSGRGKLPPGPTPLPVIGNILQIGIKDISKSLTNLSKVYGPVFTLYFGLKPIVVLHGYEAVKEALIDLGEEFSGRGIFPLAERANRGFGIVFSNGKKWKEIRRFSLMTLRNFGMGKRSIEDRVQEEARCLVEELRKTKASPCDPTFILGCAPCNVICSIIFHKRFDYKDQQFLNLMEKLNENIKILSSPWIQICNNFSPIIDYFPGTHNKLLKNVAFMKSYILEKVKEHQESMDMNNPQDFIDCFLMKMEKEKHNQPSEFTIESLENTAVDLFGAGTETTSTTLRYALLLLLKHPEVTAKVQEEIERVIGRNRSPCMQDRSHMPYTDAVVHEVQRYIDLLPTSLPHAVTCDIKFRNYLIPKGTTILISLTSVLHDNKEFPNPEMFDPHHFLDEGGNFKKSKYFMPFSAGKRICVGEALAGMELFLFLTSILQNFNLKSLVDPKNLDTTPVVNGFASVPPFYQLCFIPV

`COCCCOc1cc(C[C@@H](C[C@H](N)[C@@H](O)C[C@H](C(=O)NCC(C)(C)C(N)=O)C(C)C)C(C)C)ccc1OC` gave an inhibition at 20 µM (CYP2A6) of 2.6%, a Compound recovery [1] of 61.8% and an inhibition at 200 µM (CYP2C9) of 32.1%.
With `COCCCOc1cc(C[C@@H](C[C@H](N)[C@@H](O)C[C@H](C(=O)NCC([14CH3])([14CH3])C(N)=O)C(C)C)C(C)C)ccc1OC.O=C(O)/C=C/C(=O)O` the t1/2 [2] was 39.5 h, the Radiolabel recovery [3] was 66% and the Radiolabel recovery [4] was 10.4%. The Radiolabel recovery [5] was “OUTCOME = Observed, VALUE = residues of radioactivity remained in the carcass at 7 days after dosing”, the Cmax [6] was 14.6 µM and the Radiolabel recovery [7] was 7.51%. The Radiolabel recovery [8] was 1.84%, the Radiolabel recovery [9] was 89.8% and the Radiolabel recovery [10] was 93.38%. For the same compound, the Cmax [11] was 0.416 µM, the Cmax ([11]; iv, 10 mg/kg) was 21.2 µM and the Radiolabel recovery [12] was 70%. The Radiolabel recovery [13] was 59.8%, the Radiolabel recovery [14] was 58.6% and the Radiolabel recovery [15] was 40%. For the same compound, the Radiolabel recovery [16] was 2.07%, the Radiolabel recovery [17] was “OUTCOME = Observed, VALUE = Highest radioactivity concentration was observed” and the Radiolabel recovery [18] was “OUTCOME = Detected”. For the same compound, the Radiolabel recovery [19] was “OUTCOME = Detected” and the Cmax normalised [20] was 11.42 (umol/L)/(mg/kg).
With `COCCCOc1cc(C[C@@H](C[C@H](N)[C@@H](O)C[C@H](C(=O)NCC(C)(C)C(N)=O)C(C)C)C(C)C)ccc1OC.COCCCOc1cc(C[C@@H](C[C@H](N)[C@@H](O)C[C@H](C(=O)NCC(C)(C)C(N)=O)C(C)C)C(C)C)ccc1OC.O=C(O)/C=C/C(=O)O` [ALISKIREN FUMARATE] the Cmax [21] was 5.1 ng/mL, the Tmax [22] was 2.7 h and the Tmax [23] was 2.1 h. The “Plasma magnesium_CHANGE_BY” value [24] was 130%, the ALP_CHANGE_TO [25] was “OUTCOME = 2-fold increase over initial values. No animals died during the study” and the Cmax [26] was 8830 ng/mL. The bioavailability [27] was 2.4%, the Tmax [28] was 3 h and the Cmax normalised [29] was 0.615 (ng/mL)/(mg/kg/day). For the same compound, the Tmax [30] was 1 h, the AUC normalised [31] was 2.28 ((ng/mL).hours)/(mg/kg/day) and the Cmax normalised [32] was 0.132 (umol/L)/(mg/kg).
